Patent US20220193076A1, “METHODS OF TREATING BREAST CANCER WITH TUCATINIB” (Seagen Inc., priority 2019, published 2022)

Experiments:
[1] = Example 1: renal function (iohexol aGFR, serum creatinine, urine albumin); format: in vivo, human
[2] = molecular target: CYP3A4 (Homo sapiens, UniProt P08684); assay: In vitro time-dependent inhibition of CYP3A4 (background statement); format: in vitro ADME
[3] = molecular target: T1, OCT2 (Homo sapiens, UniProt O15244); assay: Inhibition of OCT2 mediated transport of creatinine in transfected MDCK-II cells (Example 3); format: in vitro ADME; details: probe substrate creatinine, 0.03 to 10 μM
T1 construct: expressed in transfected cells; host or cells: MDCK-II
T1 sequence (O15244 1-555): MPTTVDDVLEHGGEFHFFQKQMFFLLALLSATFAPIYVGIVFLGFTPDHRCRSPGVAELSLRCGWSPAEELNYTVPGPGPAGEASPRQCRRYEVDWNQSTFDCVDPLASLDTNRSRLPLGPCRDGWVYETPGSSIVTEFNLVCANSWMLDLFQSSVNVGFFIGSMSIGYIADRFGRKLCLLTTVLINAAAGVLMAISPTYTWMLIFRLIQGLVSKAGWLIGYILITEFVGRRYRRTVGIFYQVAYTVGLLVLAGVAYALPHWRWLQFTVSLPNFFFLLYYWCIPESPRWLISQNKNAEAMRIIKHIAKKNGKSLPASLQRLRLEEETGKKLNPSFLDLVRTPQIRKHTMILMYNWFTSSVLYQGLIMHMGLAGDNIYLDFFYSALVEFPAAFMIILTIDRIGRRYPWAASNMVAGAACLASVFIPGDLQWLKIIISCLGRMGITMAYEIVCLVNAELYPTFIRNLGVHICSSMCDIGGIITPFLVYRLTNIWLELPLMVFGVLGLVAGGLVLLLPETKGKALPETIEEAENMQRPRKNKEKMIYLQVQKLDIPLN
Method: Substrate dependent inhibition is common among transporters including MATE1 and MATE2-K. In this study, creatinine was used as the probe substrate to assess the inhibitory potency of Tucatinib and ONT-993. OAT2, OCT2, OCT3, MATE1, and MATE2-K are the renal transporters identified to transport creatinine. Tucatinib and its metabolite ONT-993 were tested as potential inhibitors of OAT2, OCT2, MATE1, and MATE2-K mediated transport using creatinine as a probe substrate.
For this study, MDCK-II were maintained in DMEM with low glucose and 10% FBS. Cells were seeded at 60K±10K cells/well on 96-well, transwell membrane plates approximately 24 hours before transfection. Transport assays were carried out approximately 48 hours after transfection. Cells were transfected and treated to express the transporter of interest or treated with a control vector. The transport of creatinine was determined by radiometric detection.
Net transporter mediated uptake of the substrate by each transporter was calculated as follows: Net Transporter Mediated Substrate Uptake (pmol/min/cm^2)=(Cellular accumulation in the presence of the transporter)−(Mean cellular accumulation in the absence of the transporter.
Percent inhibition was calculated as follows: Percent inhibition=100−(100*(transporter mediated uptake)with inhibition/(transporter mediated uptake)without inhibition) […]

[4] = molecular target: CYP2C9 (Homo sapiens, UniProt P11712); assay: Ki determination in pooled human liver microsomes, diclofenac 4'-hydroxylase (Example 5); format: in vitro ADME; parameters: endogenous in cells; host or cells: healthy human subjects, in vivo
Method: The objective of this study was to evaluate in vitro the Ki of tucatinib of the following human hepatic cytochrome P450 (CYP) enzymes (CYP2C8, CYP2C9, and CYP3A4) and UGT1A1. […] Pooled human liver microsomes (HLM) from 150 individuals (79 males and 71 females) were obtained from BioreclamationIVT (Baltimore, Md.) and stored at approximately −70° C. The microsomes were characterized by the supplier for total protein and selected cytochrome P450 activities. […] The final organic solvent contribution was ≤1%. Incubations were terminated by the addition of chilled acetonitrile containing a stable isotope-labeled internal standard. […] Samples were analyzed by liquid chromatography with tandem mass spectrometry (LC-MS/MS). Analyte concentrations were quantified by LC-MS/MS and interpolated from standard curves of authentic analyte. […] Activities were calculated based on analyte concentration, incubation time, and protein concentration. Enzymatic activity (pmol/minute/mg protein) was expressed as the formation of the analyte per final protein concentration per incubation time. Activity remaining was expressed as the enzymatic activity at each concentration point of the test article normalized by the solvent control mean activity. […]

[5] = system: MATE1/2K; assay: Phase 1 drug-drug interaction study: effect of tucatinib on metformin pharmacokinetics (Example 1); details: healthy subjects, tucatinib 300 mg bid
[6] = following multiple doses of tucatinib

Sequence of CYP2C9 (P11712 whole entry): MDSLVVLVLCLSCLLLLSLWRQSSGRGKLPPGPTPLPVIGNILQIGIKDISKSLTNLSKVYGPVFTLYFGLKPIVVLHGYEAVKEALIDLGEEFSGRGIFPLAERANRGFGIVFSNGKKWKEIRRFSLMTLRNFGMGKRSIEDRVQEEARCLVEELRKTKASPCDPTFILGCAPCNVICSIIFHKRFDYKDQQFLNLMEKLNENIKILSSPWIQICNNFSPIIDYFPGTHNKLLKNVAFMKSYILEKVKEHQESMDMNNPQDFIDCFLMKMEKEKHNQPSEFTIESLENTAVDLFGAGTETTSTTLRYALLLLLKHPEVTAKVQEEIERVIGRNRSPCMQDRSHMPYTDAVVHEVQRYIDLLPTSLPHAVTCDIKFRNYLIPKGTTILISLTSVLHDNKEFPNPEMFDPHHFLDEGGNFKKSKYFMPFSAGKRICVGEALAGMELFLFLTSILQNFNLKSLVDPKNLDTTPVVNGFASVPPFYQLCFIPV
Sequence of CYP3A4 (P08684 whole entry): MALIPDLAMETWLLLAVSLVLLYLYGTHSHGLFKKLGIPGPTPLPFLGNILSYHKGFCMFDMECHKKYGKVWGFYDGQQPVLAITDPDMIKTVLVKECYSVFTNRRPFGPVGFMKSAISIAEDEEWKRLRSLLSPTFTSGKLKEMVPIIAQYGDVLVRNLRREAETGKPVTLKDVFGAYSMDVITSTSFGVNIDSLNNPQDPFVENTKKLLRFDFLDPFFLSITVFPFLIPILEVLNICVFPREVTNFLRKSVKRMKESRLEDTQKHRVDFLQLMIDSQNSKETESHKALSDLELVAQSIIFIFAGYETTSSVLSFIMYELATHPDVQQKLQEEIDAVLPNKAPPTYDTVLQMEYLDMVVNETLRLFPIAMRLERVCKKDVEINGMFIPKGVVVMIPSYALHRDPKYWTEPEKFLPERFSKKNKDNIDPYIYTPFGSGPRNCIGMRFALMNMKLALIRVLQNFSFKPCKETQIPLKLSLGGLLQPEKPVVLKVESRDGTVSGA

In the case of `Cc1cc(Nc2ncnc3ccc(NC4=NC(C)(C)CO4)cc23)ccc1Oc1ccn2ncnc2c1` [tucatinib], the Renal damage ([1]; conclusion of Example 1) is reported as “does not cause renal damage”, the “Change in mean serum creatinine” value [1, 6] is reported as “increase” and the “Measures of renal function including aGFR as assessed by iohexol and urine albumin levels” value [1, 6] is reported as “not affected”. For the same compound, the “Time-dependent inhibition of CYP3A4” value [2] was “no time-dependent inhibition”, the IC50 [3] was 107 ± 37.9 nM and the “Inhibition mechanism, CYP2C9” value [4] was “competitive inhibition”. The Ki ([4]; marker substrate diclofenac) was 4570 nM and the “Inhibition of the renal OCT2/MATE1/MATE2-K pathway in vivo” value [5] was “weak inhibitor”.
